Measurements published in PMC7436000, “The Spectrum of Design Solutions for Improving the Activity-Selectivity Product of Peptide Antibiotics against Multidrug-Resistant Bacteria and Prostate Cancer PC-3 Cells” (Molecules, 2020).
Converted amounts (≈) assume the structure as drawn. Peptide text beside a SMILES is read from it.

Legend:
K. pneum. clin. isolate = type: cell-based, Klebsiella pneumoniae
Description: (§1) The American Type Culture Collection (ATCC, Rockville, MD, USA) strains and Escherichia coli MG1655 were used as standard bacterial strains. Gram-negative ATCC strains consisted of Escherichia coli (ATCC 25922), Pseudomonas aeruginosa (ATCC 27853), Acinetobacter baumannii (ATCC 19606), and Klebsiella pneumoniae (ATCC 13883). The only Gram-positive standard strain chosen for testing was Staphylococcus aureus (ATCC 29213). Clinical isolates with confirmed multidrug-resistance phenotype were obtained from different wards of the University Hospital Center, Split, Croatia. We described their origin, antibiograms, and resistance phenotype previously. In the same paper, we described the procedure for antimicrobial susceptibility testing on planktonic cells, using the microdilution method in 96-well microtiter plates.
(§2) Briefly, cells were grown on agar plates and a single colony was sampled to generate a liquid culture (LC) grown overnight at 37 °C. The culture was sampled, resuspended in fresh medium, and allowed to grow at 37 °C, until reaching the mid-exponential phase. Lysogeny broth (LB) was used in the case of the E. coli MG1655 cells. Mueller Hinton (MH) medium was used for all other bacterial strains. Serial 2-fold dilutions of the peptide (64 μM to 0.0625 μM) were prepared from peptide stock solution in PBS, and added to a final load of 5 × 10^5 CFU/mL in 100 μL total volume of medium per well in a 96-well plate (Brand 781660). Bacterial cultures were incubated with peptides for 18 h to 24 h at 37 °C. The minimum inhibitory concentration (MIC) was defined as the lowest concentration of the peptide, at which no visible bacterial growth was observed. The MIC for each of the tested peptides was determined in at least three individual assays under the same laboratory conditions. […] At the end of the incubation period for MIC or MBC, the determination of the OD600 was analyzed.

[1] = test system: Acinetobacter baumannii (ATCC 19606); type: cell-based; conditions: ATCC 19606
Description: as §1, §2

[2] = test system: Klebsiella pneumoniae (ATCC 13883); type: cell-based; conditions: ATCC 13883
Description: as §1, §2

Escherichia coli MG1655 = type: cell-based; conditions: MG1655
Description: as §1, §2

[3] = test system: Staphylococcus aureus (ATCC 29213); type: cell-based; conditions: for PEa(20) = SI/MIC(aureus): ATCC 29213, 18 h
Description: as §1, §2

[4] = test system: Escherichia coli (ATCC 25922); type: cell-based; conditions: ATCC 25922
Description: as §1, §2

[5] = test system: Pseudomonas aeruginosa (ATCC 27853); type: cell-based; conditions: ATCC 27853
Description: as §1, §2

S. aureus clin. isolate = type: cell-based, Staphylococcus aureus; conditions: clin. isolate
Description: as §1, §2

[6] = test system: human primary dermal fibroblasts; type: cell-based; conditions: 24 h
Procedure: (§3) Prostate cancer cells were donated by the University of Split, School of Medicine. Cells were cultured in RMPI-1640 medium, supplemented with 10% FBS, 1% Penicillin-Streptomycin, and 1% L-Glutamine. Human dermal fibroblasts were purchased from Biopredic (France) and cultured in DMEM medium, supplemented with 10% FBS and 1% Penicillin-Streptomycin. All cell lines were maintained in a humidified incubator with 5% CO2 at 37 °C. Cells were detached using the trypsin-EDTA solution and sub-cultured (7000 cells/well) in a 96-well plate overnight. Peptide stock solutions were prepared in PBS, and cancer cells were treated with 2-fold serial dilutions for 24 h at 37 °C, with 5% CO2. The toxicity of 6 selected peptides was assessed by a standard MTT assay. Treated cells were incubated with MTT working solution (0.5 mg/mL Thiazolyl Blue Tetrazolium Bromide) for 4 h at 37 °C with 5% CO2. Precipitated formazan was dissolved in 200 µL DMSO and absorbance was measured at 595 nm with EnSight Multimode Plate Reader (PerkinElmer, Inc.)

human erythrocytes = test: Hemolysis of human erythrocytes; type: cell-based; conditions: for HC10: concentration causing 10% hemolysis, 0.2% Triton = 100%; for HC10 / HC20 / HC50: 0.5% RBC in PBS, 1 h, 37 °C, absorbance 450 nm, triplicate; for HC20: concentration causing 20% hemolysis; for HC50: concentration causing 50% hemolysis
Procedure: Fresh blood was obtained from a healthy donor. Blood was stored in a tube containing EDTA at 4 °C and used within 24 h. Before use, 1 mL of blood was centrifuged (400× g, 10 min), and the supernatant was discarded. Moreover, 500 μL cold PBS with EDTA (1 mM) was added, mixed and centrifuged. The supernatant was discarded. Furthermore, 500 μL of cold PBS with EDTA (1 mM) was added, from which a dilution of 1% blood was made. Peptides were prepared in PBS at a 2 × concentration in 100 µL. […] The suspension was incubated at 37 °C for 1 h and centrifuged at 10,000× g for 5 min. […] After centrifugation, the supernatant was added to a 96-well microtiter plate (150–180 μL), and the absorbance was measured at 450 nm, using EnSight Multimode Plate Reader (PerkinElmer, Inc.). Each measurement was done in triplicate. […] We opted to also include the extrapolated HC50 in our results, to permit comparisons with older toxicity results. However, the HC20 measurements were used for ranking the peptides according to their selectivity and overall performance (Figure 1 and Figure 2 and Table 2).

A. baum. clin. isolate = type: cell-based, Acinetobacter baumannii
Description: as §1, §2

[7] = test system: PC-3 prostate cancer cell line; type: cell-based, human; conditions: 24 h
Procedure: as §3

P. aerug. clin. isolate = type: cell-based, Pseudomonas aeruginosa
Description: as §1, §2

E. coli clin. isolate = type: cell-based, Escherichia coli; conditions: clin. isolate
Description: as §1, §2

Row | Compound | MIC (K. pneum. clin. isolate) (K. pneum. clin. isolate) [µM] | MIC (A. baum. ATCC 19606) [1] [µM] | MIC (K. pneum. ATCC 13883) [2] [µM] | MIC (E. coli MG1655) (Escherichia coli MG1655) [µM] | MIC (S. aureus ATCC 29213) [3] [µM] | MIC (E. coli ATCC 25922) [4] [µM] | MIC (P. aerug. ATCC 27853) [5] [µM] | MIC (S. aureus clin. isolate) (S. aureus clin. isolate) [µM] | IC50 [6] [µM] | HC10 (human erythrocytes) [µM] | HC20 (human erythrocytes) [µM] | MIC (A. baum. clin. isolate) (A. baum. clin. isolate) [µM] | (TI/ IC50C) vs. MP1 [7] | IC50 [7] [µM] | TI (HC20/IC20C) [7] | TI (IC50F/IC50C) [7] | TI/ IC50C [7] | MIC (P. aerug. clin. isolate) (P. aerug. clin. isolate) [µM] | MIC (E. coli clin. isolate) (E. coli clin. isolate) [µM] | HC50 (human erythrocytes) [µM] | other results
1 | CC[C@H](C)[C@H](NC(=O)CN)C(=O)N[C@@H](CCCCN)C(=O)N[C@@H](CCCCN)C(=O)N[C@@H](Cc1c[nH]c2ccccc12)C(=O)N[C@H](C(=O)N[C@@H](CCCCN)C(=O)NCC(=O)N[C@H](C(=O)N[C@@H](C)C(=O)N[C@@H](CCCCN)C(=O)NCC(=O)N[C@H](C(=O)N[C@@H](C)C(=O)N[C@@H](CCCCN)C(=O)N[C@@H](CC(=O)O)C(=O)N[C@@H](CC(C)C)C(=O)N[C@@H](C)C(=O)N[C@@H](CCCCN)C(=O)N[C@@H](CCCCN)C(=O)N[C@H](C(=O)N[C@@H](CC(C)C)C(N)=O)[C@@H](C)CC)C(C)C)C(C)C)C(C)C [FLEX] (H-GIKKWVKGVAKGVAKDLAKKIL-NH2) | 2 to 4 | 0.5 to 1 | 0.5 to 1 | 16 (≈ 37.6 µg/mL) | 0.25 (≈ 0.587 µg/mL) | 0.25 (≈ 0.587 µg/mL) | 2 (≈ 4.7 µg/mL) | 4 (≈ 9.4 µg/mL) | 30 | 6 | 25 | 1 (≈ 2.35 µg/mL) | 18.5 | 6.25 | 25 | 4.8 | 0.77 | 2 to 4 | 0.5 (≈ 1.17 µg/mL) |  | 
2 | CC[C@H](C)[C@H](NC(=O)[C@H](CCCCN)NC(=O)[C@H](CC(C)C)NC(=O)[C@H](C)NC(=O)[C@H](CCCCN)NC(=O)[C@H](CC(C)C)NC(=O)[C@H](C)NC(=O)[C@@H](NC(=O)[C@H](CCCCN)NC(=O)[C@H](C)NC(=O)[C@@H](NC(=O)[C@@H](N)CCCCN)[C@@H](C)CC)C(C)C)C(=O)N[C@@H](C)C(=O)N[C@@H](CCCCN)C(=O)NCC(=O)N[C@@H](C)C(=O)N[C@@H](CC(C)C)C(=O)N[C@@H](CCCCN)C(=O)N[C@@H](C)C(=O)N[C@@H](CC(C)C)C(N)=O [KIA1] (H-KIAKVALKALKIAKGALKAL-NH2) | 12 (≈ 24.6 µg/mL) | 1.5 (≈ 3.07 µg/mL) | 3 (≈ 6.14 µg/mL) | 8 (≈ 16.4 µg/mL) | 1 (≈ 2.05 µg/mL) | 0.75 (≈ 1.54 µg/mL) | 6 (≈ 12.3 µg/mL) | 3 (≈ 6.14 µg/mL) | 15 | 3 | 6 | 1.5 (≈ 3.07 µg/mL) | 1.6 |  | 1 | 1 | 0.07 | 3 (≈ 6.14 µg/mL) | 12 (≈ 24.6 µg/mL) | 20 | 
3 | CC[C@H](C)[C@H](NC(=O)CN)C(=O)N[C@@H](CCCCN)C(=O)N[C@@H](CCCCN)C(=O)N[C@@H](C)C(=O)N[C@H](C(=O)NCC(=O)N[C@@H](CCCCN)C(=O)N[C@@H](C)C(=O)N[C@@H](CC(C)C)C(=O)N[C@@H](CCCCN)C(=O)NCC(=O)N[C@@H](CC(C)C)C(=O)N[C@@H](CCCCN)C(=O)NCC(=O)N[C@@H](CC(C)C)C(=O)N[C@@H](CC(C)C)C(=O)N[C@@H](CCCCN)C(=O)N[C@@H](C)C(=O)N[C@@H](CC(C)C)C(=O)NCC(=O)N[C@@H](CCC(=O)O)C(=O)N[C@@H](CO)C(N)=O)C(C)C [A1A] (H-GIKKAVGKALKGLKGLLKALGES-NH2) | 8 (≈ 18.2 µg/mL) | 2 (≈ 4.56 µg/mL) | 4 (≈ 9.12 µg/mL) | 2 (≈ 4.56 µg/mL) | 1 (≈ 2.28 µg/mL) | 1 (≈ 2.28 µg/mL) | 64 (≈ 146 µg/mL) | 4 (≈ 9.12 µg/mL) | 30 | 25 | 80 | 4 to 8 | 5 | 12 | 27 | 2.5 | 0.21 | >64 | 32 (≈ 72.9 µg/mL) |  | PEa(20) = SI/MIC(aureus) [3]: 80 µM⁻¹; HC50 * (extrapolated) (human erythrocytes; extrapolated, all concentrations tested lysed less than 50% of cells): 125 * µM
4 | CC[C@H](C)[C@H](NC(=O)[C@H](CCCNC(=N)N)NC(=O)[C@H](C)NC(=O)[C@H](Cc1ccc(O)cc1)NC(=O)[C@H](CCCNC(=N)N)NC(=O)[C@H](CCCNC(=N)N)NC(=O)[C@H](Cc1c[nH]c2ccccc12)NC(=O)[C@H](Cc1c[nH]cn1)NC(=O)[C@@H](N)Cc1c[nH]cn1)C(=O)NCC(=O)N[C@@H](Cc1ccccc1)C(=O)N[C@@H](CCCNC(=N)N)C(=O)N[C@@H](C)C(=O)N[C@H](C(=O)N[C@@H](CCCNC(=N)N)C(=O)N[C@H](C(=O)N[C@H](C(=O)N[C@H](C(=O)NCC(=O)N[C@@H](CCCCN)C(N)=O)[C@@H](C)CC)C(C)C)[C@@H](C)O)C(C)C [T2] (H-HHWRRYARIGFRAVRTVIGK-NH2) | 8 (≈ 19.8 µg/mL) | 1 (≈ 2.48 µg/mL) | 4 (≈ 9.92 µg/mL) | >32 | 1 (≈ 2.48 µg/mL) | 0.5 to 1 | 4 (≈ 9.92 µg/mL) | 4 (≈ 9.92 µg/mL) | 35 | 1.4 | 3 | 8 (≈ 19.8 µg/mL) | 8.4 | 10 | 1 | 3.5 | 0.35 | 32 (≈ 79.3 µg/mL) | 8 (≈ 19.8 µg/mL) | 28 | PEa(20) = SI/MIC(aureus) [3]: 3 µM⁻¹
